Measured values from publication PMC10590756, “Glutarate regulates T cell metabolism and anti-tumour immunity” (Nature Metabolism, 2023).

Tests used:
murine CD8^+ T cells = assay: Cell growth and viability of murine CD8^+ T cells; assay type: cell-based; conditions: 7 days
Experimental: After 7 days of culture, we assessed the abundance of CD62L^hiCD44^hi (TCM-like) T cells by flow cytometry (Fig. 1a). We additionally determined the effect of each compound on cell growth and viability (Fig. 1b and Extended Data Fig. 1a).
B16F10 cells were originally purchased from ATCC (catalogue no. CRL-6475) and genetically modified to express OVA, enhanced green fluorescent protein (GFP) and neomycin phosphotransferase. The resulting OVA expression B16F10-OVA cells were cultured in DMEM (catalogue no. 11995065, Thermo Fisher Scientific) containing 0.75 mg ml^−1 G418 sulphate (catalogue no. 10131027, Thermo Fisher Scientific). HEK 293T cells were purchased from Takara Bio (catalogue no. 632180) and cultured in DMEM. SKOV3 was purchased from ATCC (catalogue no. HTB-77) and cultured in McCoy’s 5A (Modified) Medium (catalogue no. 16600082, Thermo Fisher Scientific). Raji-GFP-Luc cells were purchased from Biocytogen (catalogue no. B-HCL-010) and cultured in Roswell Park Memorial Institute (RPMI) 1640 (catalogue no. 21875, Thermo Fisher Scientific). Jurkat cells were purchased from ATCC (catalogue no. TIB-152) and cultured in RPMI 1640. RAW 264.7 cells were purchased from ATCC (catalogue no. TIB-71) and cultured in RPMI 1640. HeLa cells were a gift from P. Lehner (University of Cambridge) and were authenticated using short tandem repeat profiling (Eurofins Genomics). HeLa cells were cultured in DMEM. MEFs were isolated from macerated embryonic day (E) 12.5–13.5 embryos. A whole litter of embryos without sex selection were used. Stable transfection with SV40 large T antigen passage 3 was used for immortalization. Cells were subcultured over 17 more passages and maintained in DMEM[63]. All media was supplemented with 10% FCS (catalogue no. 10270106, Gibco), 100 U ml^−1 penicillin and 100 µg ml^−1 streptomycin (catalogue no. P4333, Sigma-Aldrich). […] Cell number and viability was determined using the ADAM-MC Automated Cell Counter (NanoEntek), CellDrop Automated Cell Counter (DeNovix) or TC20 Automated Cell Counter (Bio-Rad Laboratories). […]

PDHE2 K259 in HeLa cells = molecular target: T1, PDHE2 K259 in HeLa cells (Homo sapiens, UniProt P10515); assay: Proteomic analysis of PTMs on immunoprecipitated PDHE2; assay type: cell-based; conditions: 500 µM DEG, 24 h
T1 construct: Proteomic analysis of PDHE2 immunoprecipitated from HeLa cells; endogenous in cells; host or cells: HeLa cells
Experimental: HeLa cells were lysed on ice for 30 min in a HEPES buffer (150 mM NaCl, 50 mM HEPES, pH 7.0, 1% IGEPAL CA-630, 1 mM nicotinamide (Sigma-Aldrich), 5 mM Tris(2-carboxyethyl)phosphine hydrochloride (Sigma-Aldrich), 1× Complete Protease Inhibitor Cocktail (Roche) and 1 mM phenylmethylsulfonyl fluoride). Lysates were centrifuged at 14,000g for 10 min at 4 °C. Free thiols were blocked by adding 10 mM N-ethylmaleimide (NEM) (Sigma-Aldrich) and incubated on a rotator at 4 °C for 1 h. Lysates were immunoprecipitated by incubation with protein G Dynabeads (catalogue no. 10003D, Invitrogen), first for 1 h to pre-clear, and then overnight with the DLAT antibody (12362S (4A4-B6-C10), Cell Signaling Technology). […]
Raw files were processed using PEAKS Studio (v.8.0, Bioinformatics Solutions) with the following parameters: enzyme: AspN, human database (UniProt reference proteome downloaded 21 January 2021 containing 20,541 proteins) with additional contaminant database (containing 246 common contaminants); variable modifications at PEAKS database stage: oxidation, carbamidomethylation, lipoylation, 1× and 2× NEM, glutaryl lipoate, NEM glutaryl lipoate and 309 built-in modifications at PEAKS PTM stage. The area under the curve (AUC) values for each peptide were extracted from the PEAKS peptide list, with AUCs calculated by PEAKS.

T1 sequence (P10515 87-647): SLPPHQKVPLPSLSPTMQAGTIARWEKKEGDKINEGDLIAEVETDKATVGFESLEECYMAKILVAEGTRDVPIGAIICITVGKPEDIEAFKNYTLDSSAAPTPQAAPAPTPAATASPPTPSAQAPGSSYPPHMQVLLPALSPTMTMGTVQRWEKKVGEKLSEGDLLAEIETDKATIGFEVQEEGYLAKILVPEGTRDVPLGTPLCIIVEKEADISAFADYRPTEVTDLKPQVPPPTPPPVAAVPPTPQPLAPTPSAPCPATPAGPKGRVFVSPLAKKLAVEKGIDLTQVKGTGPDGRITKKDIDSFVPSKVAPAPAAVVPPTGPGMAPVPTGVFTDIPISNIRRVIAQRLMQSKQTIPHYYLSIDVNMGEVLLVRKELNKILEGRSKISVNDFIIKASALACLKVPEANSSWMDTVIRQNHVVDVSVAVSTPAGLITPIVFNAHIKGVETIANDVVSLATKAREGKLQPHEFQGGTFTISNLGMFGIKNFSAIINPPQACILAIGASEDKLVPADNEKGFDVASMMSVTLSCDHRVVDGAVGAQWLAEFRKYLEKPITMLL

Structure (SMILES): CCOC(=O)CCCC(=O)OCC [DEG, Diethyl glutarate]
- cell viability or proliferation (murine CD8^+ T cells; 400 µM): no negative effects
- cell growth (murine CD8^+ T cells; even at 1-mM concentrations): did not display any negative effects
- levels of glutaryl-lipoyl K259 of PDHE2 (PDHE2 K259 in HeLa cells): increasing
- levels of lipoyl K259 of PDHE2 (PDHE2 K259 in HeLa cells): reduced
